Experimental data: patent publication US6057447A, “Quinoline sulfide derivatives” (Zenyaku Kogyo Kabushiki Kaisha, priority 1996, dated 2000)
Values after ≈ are worked out from the molar mass of the structure shown.

Assays:
K. pneumoniae PCI 602 = test: Antibacterial Test 2: MIC, agar dilution method (aerobic MIC method); assay type: cell-based; details: Klebsiella pneumoniae, PCI602
Description: (§1) Then, tested were antibacterial activities of the typical compounds of the present invention against gram-positive and -negative bacteria other than Hp. MICs of the typical compounds of the present invention were determined in substantial accordance with agar dilution method (aerobic MIC method) based on standard method of the Japan Society Chemotherapy.
(§2) The respective test compound were dissolved in dimethyl sulfoxide (DMSO) and serially diluted twofold to prepare solutions of the compounds with concentration of 0.05-100 μg/ml. The solutions of the compounds were respectively added to sensitive-disk agar medium-N (manufactured by NISSUI SEIYAKU) to prepare agar plates for determination.
(§3) The below-mentioned strains freezingly conserved at -135° C. were thawed in a warm bath (40° C.), cultured in a sensitivity-determining bouillon at 37° C. for 18-20 hours, and then diluted with the above-mentioned medium to prepare about 1.0×10^6 CFU/ml of bacterial suspension.
(§4) Inoculation was made by 5 μl by multi-inoculator (manufactured by SAKUMA SEISAKUSHO). Culturing was made under the same conditions as those of the pre-culturing and the MIC (unit: μg/ml) was determined by observing whether the bacteria grew or not.

M. luteus ATCC 9341 = test: as above; assay type: cell-based; details: Micrococcus luteus, ATCC9341
Description: as §1, §2, §3, §4

B. subtilis PCI 219 = test: as above; assay type: cell-based; details: Bacillus subtilis, PCI219
Description: as §1, §2, §3, §4

E. coli NIHJ JC-2 = test: as above; assay type: cell-based; details: Escherichia coli, NIHJJC2
Description: as §1, §2, §3, §4

E. faecalis RIMD 3336001 = test: as above; assay type: cell-based; details: Enterococcus faecalis, RIMD3336001
Description: as §1, §2, §3, §4

P. aeruginosa IFO 3445 = test: as above; assay type: cell-based; details: Pseudomonas aeruginosa, IFO3445
Description: as §1, §2, §3, §4

S. aureus FDA 209P = test: as above; assay type: cell-based; details: Staphylococcus aureus, FDA209P
Description: as §1, §2, §3, §4

[1] = tested on: Helicobacter pylori standard strain ATCC 43526 (NCTC 11916); test: Antibacterial Test 1: MIC against Helicobacter pylori, agar plate dilution method (anaerobic MIC method); assay type: cell-based; details: 72 h, Hp ATCC 43526, agar plate dilution, 37° C., 3 days
peptic ulcer = details: up to; cited from earlier work
[2] = tested on: seven gram-positive or -negative strains; test: Antibacterial Test 2: MIC against each of the seven strains; assay type: cell-based; details: each of S. aureus, M. luteus, E. faecalis, B. subtilis, E. coli, K. pneumoniae, P. aeruginosa; read-out: MIC of each of the above-mentioned seven strains
Description: as §1, §2, §3, §4

Structure (SMILES)	MIC (K. pneumoniae PCI 602) [µg/mL]	MIC (M. luteus ATCC 9341) [µg/mL]	MIC (B. subtilis PCI 219) [µg/mL]	MIC (E. coli NIHJ JC-2) [µg/mL]	MIC (E. faecalis RIMD 3336001) [µg/mL]	MIC (P. aeruginosa IFO 3445) [µg/mL]	MIC (S. aureus FDA 209P) [µg/mL]	MIC [1] [µg/mL]	cure rate (peptic ulcer)	MIC [2] [µg/mL]
CN(C)c1ccc(C(=O)CSc2ccnc3ccccc23)cc1 [Compound 26, 4-[2-(4-Dimethylaminophenyl)-2-oxoethylthio]quinoline]	> 100	> 100	> 100	> 100	> 100	> 100	> 100	0.1 (≈ 0.31 µM)		
CC(C)(C)c1ccc(C(=O)CSc2ccnc3ccccc23)cc1 [Compound 5, 4-[2-(4-tert-Butylphenyl)-2-oxoethylthio]quinoline]	> 100	> 100	> 100	> 100	> 100	> 100	> 100	0.025 (≈ 0.0745 µM)		
O=C(CSc1ccnc2ccccc12)c1ccc(N2CCOCC2)c(Br)c1 [Compound 10, 4-[2-(3-Bromo-4-morpholinophenyl)-2-oxoethylthio]-quinoline]	> 100	> 100	> 100	> 100	> 100	> 100	> 100	0.0031 (≈ 0.00699 µM)		
O=C(CSc1ccnc2ccccc12)c1ccc(N2CCOCC2)cc1 [Compound 11, 4-[2-(4-Morpholinophenyl)-2-oxoethylthio]quinoline]	> 100	> 100	> 100	> 100	> 100	> 100	> 100	0.0125 (≈ 0.0343 µM)		
CN/C(=N/CCSCc1nc[nH]c1C)NC#N [cimetidine]									80-90%	
Cc1c(OCC(F)(F)F)ccnc1C[S+]([O-])c1nc2ccccc2[nH]1 (centres unmarked) [lansoprazole, reference compound]	> 100	> 100	> 100	> 100	> 100	> 100	> 100	12.5 (≈ 33.8 µM)		
O=C(CSc1ccnc2ccccc12)c1ccc(N2CCN(C(=O)OCC(Cl)(Cl)Cl)CC2)cc1 [Compound 81, 4-[2-[4-[4-(2,2,2-Trichloroethoxycarbonyl)-1-piperazinyl]phenyl]-2-oxoethylthio]quinoline]								0.0016 (≈ 0.00297 µM)		> 100
O=C(CSc1ccnc2ccccc12)c1ccc(N2CCN(C(=O)OCc3ccccc3)CC2)cc1 [Compound 78, 4-[2-[4-(4-Benzyloxycarbonyl-1-piperazinyl)phenyl)-2-oxoethylthio]quinoline]								0.0031 (≈ 0.00623 µM)		> 100
CN(C)c1ccc(CCSc2ccnc3ccccc23)cc1 [Compound 27, 4-[2-(4-Dimethylaminophenyl)ethylthio]quinoline]	> 100	> 100	> 100	> 100	> 100	> 100	50 (≈ 162 µM)	0.1 (≈ 0.324 µM)		
CC(C)(C)OC(=O)N1CCC(Nc2ccc(C(=O)CSc3ccnc4ccccc34)cc2Br)C1 (centres unmarked) [Compound 65, 4-[2-[3-Bromo-4-(1-tert-butoxycarbonyl-3-pyrrolidinylamino)phenyl]-2-oxoethylthio]quinoline]								0.0031 (≈ 0.00571 µM)		> 100
O=C(CSc1ccnc2ccccc12)c1ccc(NCc2ccccc2)cc1 [Compound 23, 4-[2-(4-Benzylaminophenyl)-2-oxoethylthio]quinoline]	> 100	> 100	> 100	> 100	> 100	> 100	> 100	0.025 (≈ 0.065 µM)		
CSc1ccc2c(SCc3ccc(N(C)C)cc3)ccnc2c1 [Compound 31, 4-(4-Dimethylaminobenzylthio)-7-methylthioquinoline]	> 100	> 100	> 100	> 100	> 100	> 100	> 100	0.1 (≈ 0.294 µM)		
CSc1ccc2c(SCc3ccc(N)cc3)ccnc2c1 [Compound 34, 4-(4-Aminobenzylthio)-7-methylthioquinoline]	> 100	> 100	> 100	> 100	> 100	> 100	> 100	0.2 (≈ 0.64 µM)		
O=C(CSc1ccnc2ccccc12)c1ccc(OCc2ccccc2)cc1 [Compound 1, 4-[2-(4-Benzyloxyphenyl)-2-oxoethylthio]quinoline]	> 100	> 100	> 100	> 100	> 100	> 100	> 100	0.05 (≈ 0.13 µM)		
O=C(CSc1ccnc2ccccc12)c1ccc2ccccc2c1 [Compound 2, 4-[2-(2-Naphtyl)-2-oxoethylthio]quinoline]	> 100	> 100	> 100	> 100	> 100	> 100	> 100	0.2 (≈ 0.607 µM)		
CC(C)[C@H](NC(=O)OC(C)(C)C)C(=O)N1CCN(c2ccc(C(=O)CSc3ccnc4ccccc34)cc2)CC1 [Compound 79, 4-[2-[4-[4-(N-tert-Butoxycarbonylvalyl)-1-piperazinyl]-phenyl]-2-oxoethylthio]quinoline]								0.0016 (≈ 0.00284 µM)		> 100
O=C(CSc1ccnc2ccccc12)c1ccc(N2CCCCC2)cc1 [Compound 22, 4-[2-(4-Piperidinophenyl)-2-oxoethylthio]quinoline]	> 100	> 100	> 100	> 100	> 100	> 100	> 100	0.0062 (≈ 0.0171 µM)		
CC[C@H]1OC(=O)[C@H](C)[C@@H](O[C@H]2C[C@@](C)(OC)[C@@H](O)[C@H](C)O2)[C@H](C)[C@@H](O[C@@H]2O[C@H](C)C[C@H](N(C)C)[C@H]2O)[C@](C)(OC)C[C@@H](C)C(=O)[C@H](C)[C@@H](O)[C@]1(C)O [clarithromycin, reference compound]	6.25 (≈ 8.36 µM)	≤ 0.05	0.2 (≈ 0.267 µM)	100 (≈ 134 µM)	0.39 (≈ 0.521 µM)	> 100	0.1 (≈ 0.134 µM)	0.025 (≈ 0.0334 µM)		
CC(C)(C)OC(=O)N1CCN(c2ccc(C(=O)CSc3ccnc4ccccc34)cc2)CC1 [Compound 49, 4-[2-[4-(4-tert-Butoxycarbonyl-1-piperazinyl)phenyl]-2-oxoethylthio]quinoline]	> 100	> 100	> 100	> 100	> 100	> 100	> 100	0.0008 (≈ 0.00173 µM)		
COc1ccc2[nH]c([S+]([O-])Cc3ncc(C)c(OC)c3C)nc2c1 (centres unmarked) [omeprazole]									80-90%	
CC1(C)S[C@@H]2[C@H](NC(=O)[C@H](N)c3ccc(O)cc3)C(=O)N2[C@H]1C(=O)O [amoxicillin, reference compound]	50 (≈ 137 µM)	≤ 0.05	0.2 (≈ 0.547 µM)	3.13 (≈ 8.57 µM)	0.2 (≈ 0.547 µM)	> 100	0.1 (≈ 0.274 µM)	0.05 (≈ 0.137 µM)		
CC(C)(C)OC(=O)N1CCC(c2ccc(C(=O)CSc3ccnc4ccccc34)cc2)CC1 [Compound 75, 4-[2-[4-(1-tert-Butoxycarbonyl-4-piperidinyl)phenyl]-2-oxoethylthio]quinoline]								0.0125 (≈ 0.027 µM)		
CSc1ccc2c(SCc3ccc(N4CCOCC4)cc3)ccnc2c1 [Compound 43, 4-(4-Morpholinobenzylthio)-7-methylthioquinoline]								0.1 (≈ 0.261 µM)		
CC(C)(C)OC(=O)N1CCN(c2ccc(C(=O)CSc3ccnc4ccccc34)cc2Br)CC1 [Compound 14, 4-[2-[3-Bromo-4-(4-tert-butoxycarbonyl-1-piperazinyl)-phenyl]-2-oxoethylthio]quinoline]								0.0016 (≈ 0.00295 µM)		
CC(C)CN(C)CCN(C)c1ccc(CCSc2ccnc3ccccc23)cc1 [Compound 72, 4-[2-[4-[N-[2-(N-Isobutyl-N-methylamino)ethyl]-N-methylamino]phenyl]ethylthio]quinoline]								0.05 (≈ 0.123 µM)		
COc1cc(C(=O)CSc2ccnc3ccccc23)cc(OC)c1OC [Compound 17, 4-(2-(3,4,5-Trimethoxyphenyl)-2-oxoethylthio]quinoline]								0.05 (≈ 0.135 µM)		
O=C(CSc1ccnc2ccccc12)c1ccc(NCc2ccccc2)c(Br)c1 [Compound 20, 4-[2-(4-Benzylamino-3-bromophenyl)-2-oxoethylthio]-quinoline]								0.025 (≈ 0.0539 µM)		
COc1ccc(COc2ccc(C(=O)CSc3ccnc4ccccc34)cc2)cc1 [Compound 56, 4-[2-[4-(4-Methoxybenzyloxy)phenyl]-2-oxoethylthio]-quinoline]								0.0125 (≈ 0.0301 µM)		
